The values that follow come from ChEMBL document CHEMBL6134909 (Eur J Med Chem, 2025).

The nature of data set [1]: Cytotoxicity against human A549 cells incubated for 48 hrs by CellTiter-Glo Luminescent Cell Viability Assay. It is filed as toxicity, cell-based. For orientation: ATP-based viability assays read luminescence as a measure of living cells.
In a further data set the test system is Influenza A virus. As to the kind of experiment: Anti-viral activity against Influenza A virus H7N1 pseudotype infected in human A549 cells assessed as inhibition of viral entry incubated for 48 hrs by Neolite Reporter Gene Assay. It counts as functional, organism-based. To be noted: H7N1, A549, 48 h. For orientation: A reporter such as luciferase makes a cellular process visible.

A short description of data set [2]: Metabolic stability in mouse plasma at 2 uM measured after 60 mins by LC-MS/MS analysis. Conditions: 1 h. It counts as ADME, cell-free.
Data set [3] is described as follows: Metabolic stability in human plasma at 2 uM measured after 60 mins by LC-MS/MS analysis. It counts as ADME, cell-free. To be noted: 1 h.
The nature of data set [4]: Metabolic stability in BALB/c mouse liver microsomes assessed as compound remaining at 2 to 10 uM measured after 60 mins in absence of NADPH by LC-MS/MS analysis. It counts as ADME, Microsome. Conditions: dose 2-10 µM, read-out: Stability.
Data set [5] is described as follows: Metabolic stability in human liver microsomes assessed as compound remaining at 2 to 10 uM measured after 60 mins in absence of NADPH by LC-MS/MS analysis. It counts as ADME, Microsome. Conditions: dose 2-10 µM, read-out: Stability.
Data set [6] is described as follows: Metabolic stability in BALB/c mouse liver microsomes assessed as compound remaining at 2 to 10 uM measured after 60 mins in presence of NADPH by LC-MS/MS analysis. It counts as ADME, Microsome. To be noted: dose 2-10 µM, read-out: Stability. On the technique in general: Microsomes from liver hold many membrane-bound enzymes, among them those of drug oxidation.

Data set [7] can be described thus: Metabolic stability in human liver microsomes assessed as compound remaining at 2 to 10 uM measured after 60 mins in presence of NADPH by LC-MS/MS analysis. It is filed as ADME, Microsome. To be noted: dose 2-10 µM, read-out: Stability.

The CC50 is the concentration at which the toxic effect on the cells reaches its halfway point. Usually EC50 stands for the concentration giving half of the maximal effect. Take `Fc1ccc(-c2nc3ncccn3c2NC2CCCCC2)cc1`: in data set [1], the CC50 at 48 h was greater than 100 µM. In addition, the EC50 in the data set with Influenza A virus is 0.04 µM.
In the case of `CCOc1ccc(-c2nc3nc(C)cc(C)n3c2NC2CCCCC2)cc1OC`, the CC50 at 48 h in data set [1] was greater than 25 µM. For the same compound, in the data set on Influenza A virus, the EC50 was found to be 5.33 µM.
The like results for `Cc1cc(C)n2c(NC34CC5CC(C)(CC(C)(C5)C3)C4)c(-c3ccccc3)nc2n1` were, in that order, 32 µM and 13 µM.
`COCOc1ccc(-c2nc3ncc(Cl)cn3c2NC2CCCCCC2)cc1` yielded a CC50 at 48 h in data set [1] greater than 100 µM. In the data set with Influenza A virus, the EC50 came out at 0.74 µM. For the same compound, the Stability entry in data set [2] and in data set [3] was “Stable” in each case. For the same compound, the remaining at 1 h, up to 10 µM stood at 111% in data set [4], 111% in data set [5], 2.7% in data set [6] and 13.8% in data set [7].
In turn, `COCOc1ccc(-c2nc3ncccn3c2NC2CCCCCC2)cc1` had a CC50 at 48 h in data set [1] of 52 µM. Further, the EC50 in the data set on Influenza A virus is 0.16 µM.
The corresponding values for `Fc1cccc(-c2nc3ncccn3c2NC2CCCCC2)c1` are greater than 25 µM and 0.39 µM.
For the compound `Cc1cc(C)n2c(NC3CCCCC3)c(-c3ccc(Cl)s3)nc2n1`, in data set [1], the midpoint of cytotoxicity, the CC50 at 48 h, lay at 14.8 µM. The EC50 with Influenza A virus stood at 2.26 µM.
The like results for `COc1ccc(COc2ccc(-c3nc4ncccn4c3NC3CCCCC3)c(F)c2)cc1` were, in that order, 39 µM and 2.1 µM.
The like results for `Cc1cc(C)n2c(NC3CCCCC3)c(-c3ccncc3)nc2n1` were, in that order, greater than 25 µM and 0.89 µM.
`COCOc1ccc(-c2nc3ncccn3c2NC2CCCCC2)c(F)c1` had a CC50 at 48 h in data set [1] greater than 100 µM. For the same compound, in the data set with Influenza A virus, the EC50 stood at 0.08 µM. In addition, the Stability result in data set [2] and in data set [3] was “Stable” in each case. The remaining at 1 h, up to 10 µM in data set [4] was 107%; in data set [5], 103%; in data set [6], 9.2%; in data set [7], 62.3%.
With `Fc1ccc(-c2nc3ncccn3c2NC2CCCCC2)cc1N1CCOCC1`, the CC50 at 48 h in data set [1] is greater than 25 µM. Moreover, the EC50 with Influenza A virus was determined as 0.68 µM.
The corresponding values for `Fc1cc(-c2nc3ncc(Cl)cn3c2NC2CCCCC2)ccc1N1CCOCC1` are greater than 100 µM and 1.61 µM.
The like results for `Fc1ccc(-c2nc3ncc(Cl)cn3c2NC2CCCC2)cc1F` were, in that order, 25 µM and 8.3 µM.
The corresponding values for `Cc1cc(C)n2c(NC3CCCCC3)c(-c3ccc(Cl)c(Cl)c3)nc2n1` are 12 µM and 2.51 µM.
In the case of `COc1cc(OC)cc(-c2nc3ncccn3c2NC2CCCCC2)c1`, in data set [1], the CC50 at 48 h worked out at 47 µM. For the same compound, the EC50 in the data set on Influenza A virus was 1.89 µM.
The like results for `CN1CCN(c2ccc(-c3nc4ncc(Cl)cn4c3NC3CCCCC3)cc2F)CC1` were, in that order, 31 µM and 1.49 µM.
The corresponding values for `Oc1ccc(-c2nc3ncc(Br)cn3c2NC2CCCCCC2)cc1` are 45 µM and 3.65 µM.
The corresponding values for `COc1cc(-c2nc3nc(C)cc(C)n3c2NC2CCCCC2)ccc1F` are greater than 25 µM and 2.06 µM.
Compound `COCOc1ccc(-c2nc3ncccn3c2NC2CCCCC2)cc1` yielded a CC50 at 48 h in data set [1] greater than 100 µM. Besides, in the data set with Influenza A virus, the EC50 is 0.09 µM. For the same compound, the Stability entry in data set [2] and in data set [3] was “Stable” each time. Also, the remaining at 1 h, up to 10 µM in data set [4] turned out to be 109%; in data set [5], 105%; in data set [6] it was 2.2%; in data set [7], 63.7%.
In data set [1], `COCOc1cc(F)c(-c2nc3ncc(Cl)cn3c2NC2CCCCC2)c(OC)c1` gave a CC50 at 48 h of 48 µM. In addition, the EC50 in the data set with Influenza A virus was 6.65 µM.
Consider `Cc1cc(C)n2c(NC3CCCCC3)c(-c3nccs3)nc2n1`, for which, in data set [1], the CC50 at 48 h was greater than 25 µM. The EC50 in the data set on Influenza A virus came out at 0.49 µM. In addition, the Stability entry in data set [2] and in data set [3] was “Stable” throughout. For the same compound, the remaining at 1 h, up to 10 µM in data set [4] came out at 99.9%; in data set [5], 101%; in data set [6], 29.4%; in data set [7], 19.8%.
For `COCOc1ccc(-c2nc3ncc(Br)cn3c2NC2CCCCCC2)cc1`, the CC50 at 48 h in data set [1] was greater than 100 µM. Besides, the EC50 in the data set with Influenza A virus came to 1.31 µM.
The like results for `Cc1cc(C)n2c(NC3CCCCC3)c(-c3ccccc3)nc2n1` were, in that order, 59 µM and 2.55 µM.
In data set [1], `COc1ccc(-c2nc3sccn3c2NC2CCCCC2)cc1` returned a cytotoxic concentration (CC50) at 48 h of 63.1 µM. In addition, the EC50 in the data set with Influenza A virus is 3.02 µM.
The like results for `Clc1cnc2nc(-c3ccccc3)c(NC3CCCCC3)n2c1` were, in that order, greater than 100 µM and 13 µM.
For `Fc1ccc(-c2nc3ncccn3c2NC2CCCCC2)c(F)c1`, in data set [1], the CC50 at 48 h is 72 µM. Besides, the concentration giving a half-maximal response (EC50) in the data set with Influenza A virus was found to be 0.09 µM. The Stability result in data set [2] and in data set [3] was “Stable” each time. For the same compound, the remaining at 1 h, up to 10 µM in data set [4] was found to be 108%; in data set [5], 104%; in data set [6], 22.8%; in data set [7], 33.4%.
For `Oc1ccc(-c2nc3ncc(Cl)cn3c2NC2CCCCCC2)cc1`, the CC50 at 48 h in data set [1] was 50 µM. Moreover, the EC50 in the data set with Influenza A virus stood at 1.09 µM.
The like results for `CN1CCOc2cc(-c3nc4ncc(Cl)cn4c3NC3CCCCC3)ccc21` were, in that order, greater than 100 µM and 2.05 µM.
The corresponding values for `Cc1cc(C)n2c(NC3CCCCC3)c(-c3cccc4c3OC(F)(F)O4)nc2n1` are greater than 25 µM and 6.27 µM.
The corresponding values for `Cc1cc(C)n2c(NC3CCCCC3)c(-c3ccc(F)c(N4CCOCC4)c3)nc2n1` are greater than 25 µM and 4.57 µM.
For `Cc1cc(C)n2c(NC3CCCCC3)c(-c3ccnc(Cl)c3)nc2n1`, the CC50 at 48 h in data set [1] was greater than 25 µM. In the data set with Influenza A virus, the EC50 came to 0.27 µM. The Stability result in data set [2] and in data set [3] was “Stable” each time. The remaining at 1 h, up to 10 µM in data set [4] came to 105%; in data set [5], 114%; in data set [6] it was 6.8%; in data set [7], 0.5%.
With `Fc1ccc(-c2nc3ncc(Cl)cn3c2NC2CCCCC2)cc1F`, the CC50 at 48 h in data set [1] was greater than 100 µM. In addition, the concentration for a half-maximal effect (EC50) with Influenza A virus was determined as 0.26 µM. Moreover, the Stability entry in data set [2] and in data set [3] was “Stable” each time.
Turning to `Fc1ccc(-c2nc3ncc(Cl)cn3c2NC2CCCCCC2)cc1F`, in data set [1], the 50% cytotoxic concentration (CC50) at 48 h was greater than 100 µM. The EC50 in the data set on Influenza A virus is 0.12 µM. Also, the Stability result in data set [2] and in data set [3] was “Stable” in each case. Further, the remaining at 1 h, up to 10 µM in data set [4] came to 101%; in data set [5] it was 97%; in data set [6], 6.3%; in data set [7], 2.1%.
In data set [1], `CC(C)Oc1ccc(-c2nc3ncccn3c2NC2CCCCC2)cc1` yielded a CC50 at 48 h greater than 100 µM. Further, the EC50 in the data set with Influenza A virus worked out at 1.45 µM.
The like results for `Fc1cc(N2CCOCC2)ccc1-c1nc2ncc(Cl)cn2c1NC1CCCCC1` were, in that order, 54 µM and 2.49 µM.
The like results for `Cc1ccc(Cl)c(-c2nc3ncccn3c2NC2CCCCC2)c1F` were, in that order, 27 µM and 1.26 µM.
The corresponding values for `Cc1cc(C)n2c(NC3CCCCC3)c(-c3ccc(F)c(F)c3)nc2n1` are greater than 25 µM and 1.3 µM.
Compound `CC12CC3CC(C)(C1)CC(Nc1c(-c4ccc(F)c(F)c4)nc4ncccn14)(C3)C2` had a CC50 at 48 h in data set [1] of 15.5 µM. In addition, the concentration for a half-maximal effect (EC50) with Influenza A virus is 9.18 µM.
The like results for `COCCOCOc1ccc(-c2nc3ncc(Cl)cn3c2NC2CCCCC2)cc1` were, in that order, greater than 100 µM and 0.86 µM.
The compound `CCN(c1c(-c2ccc(F)c(F)c2)nc2ncccn12)C1CCCCC1` came in with a CC50 at 48 h in data set [1] greater than 100 µM. Moreover, in the data set with Influenza A virus, the EC50 amounted to 12.8 µM. Besides, the remaining at 1 h, up to 10 µM in data set [4] was 103%; in data set [5], 110%; in data set [6], 0%; in data set [7] it was 1%.
In turn, `c1ccc(-c2nc3ncccn3c2NC2CCCC2)cc1` returned a CC50 at 48 h in data set [1] greater than 100 µM. Also, the EC50 with Influenza A virus is 0.35 µM.
The like results for `Cc1cc(C)n2c(NC3CCCCC3)c(-c3cc(Br)ncc3F)nc2n1` were, in that order, greater than 25 µM and 3.28 µM.
The corresponding values for `Fc1cc(-c2nc3ncc(Cl)cn3c2NC2CCCCC2)ccc1N1CCCC1` are greater than 100 µM and 12.5 µM.
On to `COCOc1ccc(-c2nc3ncc(Cl)cn3c2NC2CCCCC2)c(F)c1`, for which, in data set [1], it took 50 µM to reach half-maximal cytotoxicity (CC50 at 48 h). In addition, the EC50 in the data set on Influenza A virus was 3.04 µM. The remaining at 1 h, up to 10 µM in data set [4] is 102%; in data set [5] it was 106%; in data set [6] it was 14.2%; in data set [7] it was 2.6%.
In data set [1], `CN1CCN(c2ccc(-c3nc4ncc(Cl)cn4c3NC3CCCCC3)c(F)c2)CC1` showed a CC50 at 48 h of 46 µM. In the data set with Influenza A virus, the EC50 stood at 1.26 µM.
In turn, `COCOc1cccc(-c2nc3ncc(Cl)cn3c2NC2CCCCC2)c1F` came in with a CC50 at 48 h in data set [1] of 51 µM. The EC50 with Influenza A virus is 3.04 µM.
